# In patent publication US8673914B2, “Use of phosphodiesterase inhibitors for treating multidrug resistance” (St. John's University, priority 2011, dated 2014):
# Experiments:
# [1] = system: KB-C2 cells (ABCB1); assay: [^3H]-paclitaxel accumulation (Example 1); type: cell-based, human; conditions: 10 μM
# Procedure: The intracellular accumulation of [^3H]-paclitaxel was measured as follows. […] Intracellular paclitaxel accumulation was measured by incubating cells with 0.1 μM [^3H]-paclitaxel for 2 h in the presence or absence of the reversal agents at 37° C. The cells were washed three times with ice-cold PBS, then suspended in fresh medium with or without reversal agents at 37° C. Aliquots of the extracellular medium (40 μl) were collected at various time points (0, 60, 120 min), and finally the cells were collected and lysed in 10 mM lysis buffer (pH 7.4, containing 1% Triton X-100 and 0.2% SDS). Each sample was placed in scintillation fluid and the radioactivity was measured in a Packard TRI-CARB1 1900CA liquid scintillation analyzer from Packard Instrument Company, Inc. (Downers Grove, Ill.).
# [2] = system: KB-C2 (ABCB1); assay: MTT cytotoxicity/reversal assay (Example 1); type: cell-based, human
# Procedure: (§1) The KB-C2 and KB-3-1 were kindly provided by Dr. Akiyama (Kagoshima University, Japan). HEK293-pcDNA3.1 and wild-type HEK/ABCG2 transfected cells were established by selection with G418 after transfecting HEK293 with either (1) empty pcDNA3.1 vector or (2) pcDNA3.1 vector containing full length of ABCG2 coding arginine (R) at amino acid position 482, and were then cultured in a medium with 2 mg/ml of G418 (ABCG2-482-R2 cells). Similarly, the HEK/MRP1 (ABCC1) and HEK/ABCB1 cells were generated by transfecting the HEK293 cells with either the MRP1 expression vector or the ABCB1 expression vector. All of the cell lines were grown in Dulbecco's modified Eagle's medium (DMEM) supplemented with 10% bovine serum, 100 units/ml penicillin, and […] streptomycin in a humidified incubator containing 5% CO2 at 37° C.
# (§2) The MTT assay was used to assess cytotoxicity. The cultured cells were harvested with trypsin and resuspended in a final concentration of 4×10^3 cells/well for KB-3-1; 7.5×10^3 cells/well for KB-C2; and 8×10^3 for all of the other cell lines used in this study. Cells were seeded evenly in 96-well multiplates. […] After 68 h of incubation, 20 μl of the MTT solution (4 mg/ml) was added to each well, and the plate was further incubated for 4 h at 37° C., allowing viable cells to convert the yellow-colored MTT into dark-blue formazan crystals. Subsequently, the medium was discarded, and 100 μl of DMSO was added into each well to dissolve the formazan crystals, generating purple color. The absorbance was determined at 570 nm by an OPSYS Microplate Reader from DYNEX Technologies, Inc. (Chantilly, Va.). […] The degree of the reversal of multidrug resistance (MDR) was calculated by dividing the IC50 of an anticancer drug, e.g., an antineoplastic or chemotherapeutic drug (agent, compound), in a cell type in the absence of a reversal agent by the IC50 of the anticancer drug in the same cell type in the presence of the reversal agent. The IC50 values were calculated from survival curves using the Bliss method.
# [3] = system: KB-3-1; assay: MTT cytotoxicity/reversal assay (Example 1); type: cell-based, human
# Procedure: as §1, §2
# [4] = system: HEK/MRP7; assay: MTT cytotoxicity assay (Example 4); type: cell-based;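 also: drug IC50 in HEK/MRP7 divided by IC50 in parental HEK293-pcDNA3.1 cells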
# Procedure: (§3) The MRP7 cDNA was generously provided by Dr. Gary Kruh (University of Illinois, Chicago, Ill.) and inserted into the pcDNA3.1 expression vector. […] Individual colonies were selected in medium containing G418 (1 mg/ml) and cultured for further analysis.
# (§4) MTT colorimetric assay was performed to analyze the drug sensitivity as previously described (Shi et al. (2007) Cancer Res. 67:11012-20). HEK293-pcDNA3.1 and HEK/MRP7 cells were seeded into 96-well plates in triplicate at 6000 cells/well.
# (§5) After drug incubation of 68 h, 20 μl MTT solution (4 mg/ml) was added into each well. […] The Bliss method was used to calculate the IC50 values according to survival curves.
# [5] = system: HEK 293-pcDNA-3.1; assay: MTT cytotoxicity assay (Example 4); type: cell-based; conditions: HEK 293-pcDNA-3.1
# Procedure: as §3, §4, §5
# [6] = system: HEK/ABCB1 (ABCB1); assay: MTT cytotoxicity/reversal assay (Example 1); conditions: HEK/ABCB1
# Procedure: The KB-C2 and KB-3-1 were kindly provided by Dr. Akiyama (Kagoshima University, Japan). […] Similarly, the HEK/MRP1 (ABCC1) and HEK/ABCB1 cells were generated by transfecting the HEK293 cells with either the MRP1 expression vector or the ABCB1 expression vector. All of the cell lines were grown in Dulbecco's modified Eagle's medium (DMEM) supplemented with 10% bovine serum, 100 units/ml penicillin, and […] streptomycin in a humidified incubator containing 5% CO2 at 37° C.
# as §2
# [7] = system: HEK293/pcDNA3.1; assay: MTT cytotoxicity/reversal assay (Example 1); type: cell-based
# Procedure: as §1, §2
# [8] = system: HEK/MRP7 cells; assay: [^3H]-paclitaxel efflux (Example 4); type: cell-based; conditions: 5 μM PDE5 inhibitor
# Procedure: (§6) The effect of PDE5 inhibitors on the intracellular accumulation of paclitaxel in HEK293-pcDNA3.1 and HEK/MRP7 cells was measured using [^3H]-paclitaxel. […] For efflux studies, the cells were treated the same as in the drug accumulation study, and then washed three times with ice-cold PBS, and suspended in fresh medium with or without PDE5 inhibitors. Aliquots were evenly collected at various time points (0, 30, 60, and 120 min). Samples from both accumulation and efflux experiments were washed with ice-cold PBS three times and placed in scintillation fluid, and the radioactivity was measured in a Packard TRI-CARB® 1900CA liquid scintillation analyzer from Packard Instrument Company, Inc. (Downers Grove, Ill.).
# [9] = system: HEK/MRP7 cells; assay: [^3H]-paclitaxel accumulation (Example 4); type: cell-based; conditions: 5 μM, 2 h
# Procedure: as §6
# [10] = HEK293/pcDNA3.1 (Table 6), +10 μM reversal agent
# [11] = HEK293/pcDNA3.1, +5 μM reversal agent
# [12] = HEK293/pcDNA3.1, +10 μM reversal agent
compound,measurement,setting,value
"CCCc1nc(C)c2c(=O)[nH]c(-c3cc(S(=O)(=O)N4CCN(CC)CC4)ccc3OCC)nn12 [Vardenafil, vardenafil]",increase of intracellular accumulation of paclitaxel,[1],1.6 fold
same,"fold reversal, cisplatin",[2]; +5 μM reversal agent,(0.87)
same,"fold reversal, colchicine",[2]; +5 μM reversal agent,(27.6)
same,"fold reversal, paclitaxel",[2]; +5 μM reversal agent,(26.2)
same,"fold reversal, cisplatin",[2]; +10 μM reversal agent,(0.96)
same,"fold reversal, colchicine",[2]; +10 μM reversal agent,(184.8)
same,"fold reversal, paclitaxel",[2]; +10 μM reversal agent,(54.1)
same,"fold reversal, cisplatin",[3]; +5 μM reversal agent,(0.89)
same,"fold reversal, colchicine",[3]; +5 μM reversal agent,(0.90)
same,"fold reversal, paclitaxel",[3]; +5 μM reversal agent,(0.89)
same,"fold reversal, cisplatin",[3]; +10 μM reversal agent,(0.93)
same,"fold reversal, colchicine",[3]; +10 μM reversal agent,(0.93)
same,"fold reversal, paclitaxel",[3]; +10 μM reversal agent,(0.92)
same,"fold-resistance, docetaxel",[4]; +1.25 μM reversal agent,(5.56)
same,"fold-resistance, paclitaxel",[4]; +1.25 μM reversal agent,(2.99)
same,"fold-resistance, vinblastine",[4]; +1.25 μM reversal agent,(3.01)
same,"fold-resistance, cisplatin",[4]; +5 μM reversal agent,(1.09)
same,"fold-resistance, docetaxel",[4]; +5 μM reversal agent,(1.19)
same,"fold-resistance, paclitaxel",[4]; +5 μM reversal agent,(1.06)
same,"fold-resistance, vinblastine",[4]; +5 μM reversal agent,(1.11)
same,"fold-resistance, docetaxel",[5]; +1.25 μM reversal agent,(1.0)
same,"fold-resistance, paclitaxel",[5]; +1.25 μM reversal agent,(0.93)
same,"fold-resistance, vinblastine",[5]; +1.25 μM reversal agent,(0.96)
same,"fold-resistance, cisplatin",[5]; +5 μM reversal agent,(1.07)
same,"fold-resistance, docetaxel",[5]; +5 μM reversal agent,(0.80)
same,"fold-resistance, paclitaxel",[5]; +5 μM reversal agent,(0.79)
same,"fold-resistance, vinblastine",[5]; +5 μM reversal agent,(0.85)
same,"fold reversal, cisplatin",[6]; +5 μM reversal agent,(0.95)
same,"fold reversal, paclitaxel",[6]; +5 μM reversal agent,(3.86)
same,"fold reversal, vincristine",[6]; +5 μM reversal agent,(4.10)
same,"fold reversal, cisplatin",[6]; +10 μM reversal agent,(1.09)
same,"fold reversal, paclitaxel",[6]; +10 μM reversal agent,(8.69)
same,"fold reversal, vincristine",[6]; +10 μM reversal agent,(11.60)
same,"fold reversal, vincristine",[7]; [10],(0.92)
same,"fold reversal, cisplatin",[7]; [11],(1.06)
same,"fold reversal, paclitaxel",[7]; [11],(1.09)
same,"fold reversal, vincristine",[7]; [11],(0.88)
same,"fold reversal, SN-38",[7]; [12],(1.10)
same,"fold reversal, cisplatin",[7]; [12],(1.00)
same,"fold reversal, paclitaxel",[7]; [12],(1.18)
same,"fold reversal, vincristine",[7]; [12],(1.19)
same,percentage of intracellular [^3H]-paclitaxel,[8]; 30 min,95.34%
same,percentage of intracellular [^3H]-paclitaxel,[8]; 60 min,93.58%
same,percentage of intracellular [^3H]-paclitaxel,[8]; 120 min,63.92%
same,increase of intracellular accumulation of [^3H]-paclitaxel,[9],3.7 fold
"CN1CC(=O)N2[C@H](c3ccc4c(c3)OCO4)c3[nH]c4ccccc4c3C[C@@H]2C1=O [Tadalafil, tadalafil]",effect on paclitaxel accumulation,[1],had significant effects on paclitaxel accumulation
same,"fold reversal, cisplatin",[2]; +5 μM reversal agent,(1.01)
same,"fold reversal, colchicine",[2]; +5 μM reversal agent,(4.19)
same,"fold reversal, paclitaxel",[2]; +5 μM reversal agent,(2.53)
same,"fold reversal, cisplatin",[2]; +10 μM reversal agent,(0.93)
same,"fold reversal, colchicine",[2]; +10 μM reversal agent,(6.38)
same,"fold reversal, paclitaxel",[2]; +10 μM reversal agent,(4.48)
same,"fold reversal, cisplatin",[3]; +5 μM reversal agent,(0.96)
same,"fold reversal, colchicine",[3]; +5 μM reversal agent,(0.86)
same,"fold reversal, paclitaxel",[3]; +5 μM reversal agent,(0.93)
same,"fold reversal, cisplatin",[3]; +10 μM reversal agent,(1.06)
same,"fold reversal, colchicine",[3]; +10 μM reversal agent,(0.89)
same,"fold reversal, paclitaxel",[3]; +10 μM reversal agent,(1.02)
same,"fold-resistance, docetaxel",[4]; +1.25 μM reversal agent,(10.91)
same,"fold-resistance, paclitaxel",[4]; +1.25 μM reversal agent,(8.06)
same,"fold-resistance, vinblastine",[4]; +1.25 μM reversal agent,(4.58)
same,"fold-resistance, cisplatin",[4]; +5 μM reversal agent,(1.12)
same,"fold-resistance, docetaxel",[4]; +5 μM reversal agent,(8.35)
same,"fold-resistance, paclitaxel",[4]; +5 μM reversal agent,(5.87)
same,"fold-resistance, vinblastine",[4]; +5 μM reversal agent,(3.62)
same,"fold-resistance, docetaxel",[5]; +1.25 μM reversal agent,(1.09)
same,"fold-resistance, paclitaxel",[5]; +1.25 μM reversal agent,(1.07)
same,"fold-resistance, vinblastine",[5]; +1.25 μM reversal agent,(1.06)
same,"fold-resistance, cisplatin",[5]; +5 μM reversal agent,(1.11)
same,"fold-resistance, docetaxel",[5]; +5 μM reversal agent,(1.02)
same,"fold-resistance, paclitaxel",[5]; +5 μM reversal agent,(0.93)
same,"fold-resistance, vinblastine",[5]; +5 μM reversal agent,(0.95)
same,"fold reversal, cisplatin",[6]; +5 μM reversal agent,(0.94)
same,"fold reversal, paclitaxel",[6]; +5 μM reversal agent,(1.37)
same,"fold reversal, vincristine",[6]; +5 μM reversal agent,(1.50)
same,"fold reversal, cisplatin",[6]; +10 μM reversal agent,(1.09)
same,"fold reversal, paclitaxel",[6]; +10 μM reversal agent,(2.26)
same,"fold reversal, vincristine",[6]; +10 μM reversal agent,(2.45)
same,"fold reversal, vincristine",[7]; [10],(1.09)
same,"fold reversal, cisplatin",[7]; [11],(0.99)
same,"fold reversal, paclitaxel",[7]; [11],(0.99)
same,"fold reversal, vincristine",[7]; [11],(1.15)
same,"fold reversal, SN-38",[7]; [12],(0.96)
same,"fold reversal, cisplatin",[7]; [12],(1.12)
same,"fold reversal, paclitaxel",[7]; [12],(1.21)
same,"fold reversal, vincristine",[7]; [12],(1.35)
same,percentage of intracellular [^3H]-paclitaxel,[8]; 30 min,76.44%
same,percentage of intracellular [^3H]-paclitaxel,[8]; 60 min,63.41%
same,percentage of intracellular [^3H]-paclitaxel,[8]; 120 min,46.48%
same,increase of intracellular accumulation of [^3H]-paclitaxel,[9],2.1 fold
